The record followed here is patent US20090099167A1, “Organic compounds” (Novartis Institutes for Biomedical Research, priority 2004, published 2009).

pIC50: −log10 of the molar value.

The target of the experiment is T1, human EphB4 (Homo sapiens, UniProt P54760).
T1 construct: expressed in transfected cells; host or cells: A375 human melanoma cells (ATCC CRL-1619)
T1 sequence (P54760 16-987): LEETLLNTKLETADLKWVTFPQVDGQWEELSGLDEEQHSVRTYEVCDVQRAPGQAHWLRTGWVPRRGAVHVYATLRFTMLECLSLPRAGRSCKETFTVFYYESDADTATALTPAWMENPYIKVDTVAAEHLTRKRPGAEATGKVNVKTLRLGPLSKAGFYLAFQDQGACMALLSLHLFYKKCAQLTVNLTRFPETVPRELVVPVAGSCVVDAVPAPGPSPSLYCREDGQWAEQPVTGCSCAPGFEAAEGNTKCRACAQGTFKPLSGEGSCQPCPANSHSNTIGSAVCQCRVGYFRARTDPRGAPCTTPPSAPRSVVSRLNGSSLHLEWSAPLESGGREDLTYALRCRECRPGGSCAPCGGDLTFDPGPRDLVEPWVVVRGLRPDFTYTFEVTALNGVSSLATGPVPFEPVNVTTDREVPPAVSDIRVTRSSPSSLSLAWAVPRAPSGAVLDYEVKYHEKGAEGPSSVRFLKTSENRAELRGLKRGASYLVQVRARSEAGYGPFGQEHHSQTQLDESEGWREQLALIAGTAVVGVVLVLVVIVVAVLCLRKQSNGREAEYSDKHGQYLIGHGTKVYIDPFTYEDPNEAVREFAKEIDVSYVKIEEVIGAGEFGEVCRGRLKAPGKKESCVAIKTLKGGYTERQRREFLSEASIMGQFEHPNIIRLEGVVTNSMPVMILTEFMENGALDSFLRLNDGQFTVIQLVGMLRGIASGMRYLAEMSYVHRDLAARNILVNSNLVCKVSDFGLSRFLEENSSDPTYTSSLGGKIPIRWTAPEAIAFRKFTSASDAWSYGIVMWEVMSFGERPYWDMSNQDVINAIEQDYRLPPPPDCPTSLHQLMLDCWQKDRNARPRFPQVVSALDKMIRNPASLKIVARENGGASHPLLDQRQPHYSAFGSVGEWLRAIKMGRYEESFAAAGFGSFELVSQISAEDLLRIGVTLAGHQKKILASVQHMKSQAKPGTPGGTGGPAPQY
Kind of experiment: Cellular assay EphB4 receptor autophosphorylation, transfected A375 cells, sandwich ELISA. Format: cell-based. To be noted: inhibition of autophosphorylation of EphB4 kinase, Table 6. As for the experimental part:
The inhibition of EphB4 receptor autophosphorylation can be confirmed with an in vitro experiment in cells such as transfected A375 human melanoma cells (ATCC Number: CRL-1619), which permanently express human EphB4 (SwissProt AccNo P54760), are seeded in complete culture medium (with 10% fetal calf serum=FCS) in 6-well cell-culture plates and incubated at 37° C. under 5% CO2 until they show about 90% confluency. The compounds to be tested are then diluted in culture medium (without FCS, with 0.1% bovine serum albumin) and added to the cells. (Controls comprise medium without test compounds). Ligand induced autophosphorylation is induced by the addition of 1 microg/ml soluble ephrinB2-Fc (s-ephrinB2-Fc: R&D Biosystems, CatNr 496-EB) and 0.1 microM ortho-vanadate. After a further 20 minutes incubation at 37° C., the cells are washed twice with ice-cold PBS (phosphate-buffered saline) and immediately lysed in 200 μl lysis buffer per well. The lysates are then centrifuged to remove the cell nuclei, and the protein concentrations of the supernatants are determined using a commercial protein assay (PIERCE). The lysates can then either be immediately used or, if necessary, stored at −20° C.
A sandwich ELISA is carried out to measure the EphB4 phosphorylation: To capture phosphorylated EphB4 protein 100 ng/well of ephrinB2-Fc (s-ephrinB2-Fc: R&D Biosystems, CatNr 496-EB) is immobilized MaxiSorb (Nunc) ELISA plates. The plates are then washed and the remaining free protein-binding sites are saturated with 3% TopBlock® (Juro, Cat. # TB232010) in phosphate buffered saline with Tween 20° (polyoxyethylen(20)sorbitane monolaurate, ICI/Uniquema) (PBST). The cell lysates (100 μg protein per well) are then incubated in these plates for 1 h at room temperature. After washing the wells three times with PBS an antiphosphotyrosine antibody coupled with alkaline phosphatase (PY 20 Alkaline Phosphate conjugated: ZYMED, Cat Nr03-7722) is added and incubated for another hour. […] The difference between the signal of the positive control (stimulated with vanadate and s-ephrinB2-Fc) and that of the negative control (not stimulated) corresponds to maximal EphB4 phosphorylation (=100%). The activity of the tested substances is calculated as percent inhibition of maximal EphB4 phosphorylation, wherein the concentration of substance that induces half the maximum inhibition is defined as the IC50 (inhibitory dose for 50% inhibition). […] The mice are treated with the test compound (e.g. 25, 50 or 100 mg/kg p.o. once daily) or vehicle starting on the day of implantation of the chamber and continuing for 4 days after. At the end of the treatment, the mice are killed, and the chambers are removed. The vascularized tissue growing around the chamber is carefully removed and weighed, and the blood content is assessed by measuring the hemoglobin content of the tissue (Drabkins method; Sigma, Deisenhofen, Germany). It has been shown previously that these growth factors induce dose-dependent increases in weight and blood content of this tissue growing (characterized histologically to contain fibroblasts and small blood vessels) around the chambers and that this response is blocked by antibodies that specifically neutralize VEGF (see Wood J M et al., Cancer Res. 60(8), 2178-2189, (2000); and Schlaeppi et al., J. Cancer Res. Clin. Oncol. 125, 336-342, (1999)). With this model, inhibition can be shown in the case of compounds of the formula (I).
For orientation: In an ELISA, binding on a coated surface is turned into a signal by an enzyme label.
With `Cc1nc2c(-c3ccc(N4CCN(C)CC4)cc3)cnn2c(N)c1-c1ccc(F)c(Cl)c1` [Example 83, 6-(3-Chloro-4-fluoro-phenyl)-5-methyl-3-[4-(4-methyl-piperazin-1-yl)-phenyl]-pyrazolo[1,5-a]pyrimidin-7-ylamine], the pIC50 is greater than 6.00. The same measure for `Cc1nc2c(-c3cccc(N4CCN(CCO)CC4)c3)cnn2c(N)c1-c1ccc(F)c(Cl)c1` [Example 100, 2-(4-{3-[7-Amino-6-(3-chloro-4-fluoro-phenyl)-5-methyl-pyrazolo[1,5-a]pyrimidin-3-yl]-phenyl}-piperazin-1-yl)-ethanol]: greater than 6.00. Under `Cc1nc2c(-c3cccc(N4CCN(CCO)CC4)c3)cnn2c(N)c1-c1cccc(Cl)c1` [Example 90, 2-(4-{3-[7-Amino-6-(3-chloro-phenyl)-5-methyl-pyrazolo[1,5-a]pyrimidin-3-yl]-phenyl}-piperazin-1-yl)-ethanol] stands greater than 6.00; under `COc1ccc(-c2cnn3c(N)c(-c4cccc(Cl)c4)c(C)nc23)cc1OC` [Example 93, 6-(3-Chloro-phenyl)-3-(3,4-dimethoxy-phenyl)-5-methyl-pyrazolo[1,5-a]pyrimidin-7-ylamine], greater than 6.00. Under `Cc1nc2c(-c3cccc(N4CCN(C)CC4)c3)cnn2c(N)c1-c1ccc(F)cc1` [Example 80, 6-(4-Fluoro-phenyl)-5-methyl-3-[3-(4-methyl-piperazin-1-yl)-phenyl]-pyrazolo[1,5-a]pyrimidin-7-ylamine] stands greater than 6.00.

The pIC50 is −log10 of the IC50, conventionally taken in molar units. Lower therefore signals a large IC50.
